The values that follow come from US8183006B2, “Screening method for identifying new aminoacyl-tRNA synthetase inhibitors” (Fundacio Privada Parc Cientific de Barcelona, priority 2006, dated 2012).

Each structure is given as a SMILES string.

For data set [1], the system named is isoleucyl-tRNA synthetases (IleRS) from Gram-positive infectious pathogens. The settings on record: cited from earlier work.
The conditions of data set [2]: limits use to topical applications; cited from earlier work.
Data set [3] has as its system HeLa cells expressing S. pneumoniae editing-defective isoleucyl-tRNA synthetase (IleRSTA). Description: valine toxicity in transfected HeLa cells, cell death by propidium iodide staining (flow cytometry). The class given is cell-based, human. The settings on record: IleRSTA-expressing HeLa cells compared to wild type IleRS or GFP expressing HeLa cells; FIG. 2. As to the method: Cell death was measured by propidium iodide staining. Axis y represents the percentage of cell survival (abbreviated as “% C.S.”) and axis x represents the concentration of valine (mM).
For transient transfections, 20 μg of each DNA construct was added to 500 μl water containing 252 mM CaCl2. Then, 500 μl of 2×Hepes-buffered-saline buffer (280 mM NaCl, 10 mM KCl, 1.5 mM Na2HPO4, 50 mM HEPES, 12 mM dextrose, pH 7.1) was added to the DNA mixture drop by drop. 16 hours after adding this transfection mixture to the cells, the medium containing DNA was removed and new medium was added. After 24 hours, transfected cells were used for experimentation.
10 μg/ml propidium iodide was used for determination of cell viability in transiently GFP fusion proteins transfected HeLa cells. Stained cells were analyzed immediately using a Coulter Epics XL (Beckman Coulter) and analyzed using System II software.
To assess whether the expression S. pneumoniae mutated editing domain GFPIleRS has a toxic effect in a mammalian system in the presence of increasing concentrations of valine in the media, GFP, S. pneumoniae wild type (IleRS) and mutated editing domain (IleRSTA) were expressed in HeLa cells.

On to `C/C(=C\C(=O)OCCCCCCCCC(=O)O)C[C@@H]1OC[C@H](C[C@@H]2O[C@H]2[C@@H](C)[C@H](C)O)[C@@H](O)[C@H]1O` [Pseudomonic acid], for which the “selectivity for pathogen vs. mammalian IleRS” value in data set [1] is about 8000 fold. Further, the systemic bioavailability result in data set [2] is recorded as “lack of systemic bioavailability”.

As to `CC(C)[C@H](N)C(=O)O` [valine], in data set [3], the “sensitivity to cell death (% cell survival) with increasing concentrations of valine in the media” value was “higher sensitivity”.
